The subject of one test is Mycobacteria. The conditions noted are these: 20 strains, 7 days.
Another test concerns Fungi/yeasts. The note with it: 8 strains, 7 days.
Where [1] appears, read: selective agent 5 mg/l in medium L.
The mark [2] stands for this setting: selective agent 10 mg/l in medium L.
Where [3] appears, read: selective agent 20 mg/l in medium L.

Read-outs that look alike come from different tables or passages of the source.

Regarding `C[C@@H]1[C@H](O)[C@@H](C)/C=C/C=C/C=C/C=C/C=C/C=C/C=C/[C@H](O[C@@H]2O[C@H](C)[C@@H](O)[C@H](N)[C@@H]2O)C[C@@H]2O[C@](O)(C[C@@H](O)C[C@@H](O)[C@H](O)CC[C@@H](O)C[C@@H](O)CC(=O)O[C@H]1C)C[C@H](O)[C@H]2C(=O)O` [amphotericin B], the “Number of strains having shown growth” value came to 20 with Mycobacteria (setting [1]); 20 in the test with Mycobacteria (setting [2]); 20 with Mycobacteria (setting [3]); 6 in the test with Fungi/yeasts (setting [1]); 4 with Fungi/yeasts (setting [2]); 3 with Fungi/yeasts (setting [3]). Also, the “Percentage of strains having shown growth” value is on record as “(100%)” in the test with Mycobacteria (setting [1]); “(100%)” with Mycobacteria (setting [2]); “(100%)” in the test on Mycobacteria (setting [3]); “(75%)” with Fungi/yeasts (setting [1]); “(50%)” in the test on Fungi/yeasts (setting [2]); “(37.5%)” in the test with Fungi/yeasts (setting [3]).

(Values after patent US20180030500A1, “ENRICHMENT AND SELECTIVE CULTURE OF MYCOBACTERIA” (priority 2015, published 2018).)
